Results as given in patent US9994525B2, “H3 antagonists containing phenoxypiperidine core structure” (RICHTER GEDEON NYRT., priority 2013, dated 2018).
Where a name gives a salt, the structure may show the parent alone.

How the values were obtained:
hERG potassium channel = hERG potassium channel (Homo sapiens (Human), UniProt Q12809); settings: cited from earlier work
[1] = cited from earlier work
[2] = target: rat histamine H3 receptors (Rattus norvegicus (Rat), UniProt Q9QYN8); assay: rat histamine H3 receptor in vitro binding assay, N-α-[Methyl-3H]methylhistamine radioligand, rat cortex membrane; settings: 1 nM radioligand, read-out: rH3 Ki
Experimental: The in vitro affinity of the compounds of the present invention for rat histamine H3 receptors can be determined according to the following procedure.
The rat histamine H3 receptor membrane was prepared as previously described by Witte et al. (British Journal of Pharmacol. 1-14, 2006). Male Sprague-Dawley rats were decapitated, their brains were removed and the cortex was isolated. The obtained tissues were homogenized in Tris-EDTA buffer (50 mM Tris-HCl, pH 7.4, 5 mM EDTA, 2 aprotinin, 1 mM benzamidine, 2 μg/ml leupeptin, 1 pepstatin) by a blender homogenizer (Ultra-Turrax). The homogenate was centrifuged at 40000 g for 20 min at 4° C. The membrane pellets were further purified by repeating the above homogenization and centrifugation steps. Final membrane preparations were obtained by rehomogenizing the pellets in 1:10 ratio in Tris-EDTA buffer (50 mM Tris-HCl, pH 7.4, 5 mM EDTA). The so obtained membrane preparation was divided into aliquots, flash frozen and stored at −80° C. until use. Protein content was determined by Lowry method using bovine serum albumin (BSA) as standard.
Receptor binding assays were performed in at least 5 concentrations, with two parallel samples in each concentrations, in at least two independent experiments using the binding buffer (50 mM Tris-HCl, pH 7.4, 5 mM MgCl2), rat H3 membrane (140 μg protein/tube), and N-α-[Methyl-^3H]methylhistamine dihydrochloride (1 nM) as radioligand. Non-specific binding was determined in the presence of 10 μM thioperamide. The samples were incubated in a final volume of 0.50 ml for 30 min at 25° C. Binding reactions were terminated by rapid filtration through UniFilter® GF/B™ fiber glass filters presoaked for at least 2 h in 0.5% polyethylene imine (PEI). The filterplates were washed nine times with 0.5 ml of ice-cold washing buffer (50 mM Tris-HCl, pH 7.4, 5 mM MgCl2, 10 μg/ml saponine). The filterplates were dried at 50° C. for 45 min and 40 μl of Microscint20 (Packard) scintillation cocktail was added to each well. Filters radioactivity was determined by TopCount (Packard) scintillation counter.
The ligand displacement by the compounds of the present invention was determined in at least two parallel experiments. The specific radioligand binding was defined as the difference between the total binding and the non-specific binding determined in the presence of excess of unlabelled ligand or test compounds used to specifically displace the radioligand. Results were expressed as a percent inhibition of specific binding obtained in the presence of test compounds. IC50 values were calculated from concentration-displacement curves by sigmoidal fitting using GraphPad Prism Software 4.0. Inhibition constants (Ki values) were calculated using the Cheng-Prusoff equation (Cheng Y C and Prusoff W H (1973) Biochem Pharmacol 22:3099-3108).
The affinity at rat H3 receptors of compounds of the present invention is illustrated by the following table.

[3] = test system: extracellular histamine (HA) levels; assay: cerebral microdialysis, extracellular histamine (HA) levels in prefrontal cortex and hippocampus; assay type: in vivo, male Wistar rats; settings: rats
From the text: (§1) Prefrontal cortex and hippocampus, the two brain regions play important roles in cognition processes. Both histamine (HA) and acetylcholine (ACh) are transmitters playing important roles in cognition. The hypofunction of the central cholinergic and histaminergic systems is considered one of the pathogenic causes of the cognitive deficits characterizing dementias. Alterations in the extracellular levels of HA and ACh were investigated after single and simultaneous treatment with histamine H3 antagonists and acetylcholine esterase inhibitors (AChEIs) in the prefrontal cortex and hippocampus of conscious, freely moving male Wistar rats (4-6 animals/group) by cerebral microdialysis technique.
(§2) Microdialysis probes were implanted in the medial prefrontal cortex (MPFC) and hippocampus (HC), and perfused with artificial AChEI-free cerebrospinal fluid (aCSF). Compounds examined in the present study were administered in 1% hydroxypropyl-methylcellulose (HPMC) and 5% polyoxiethelen(8)-sorbitane-monooleat (Tween 80) into the stomach via surgically implanted catheter.
(§3) Thirty-min samples were collected and the temporal changes in the extracellular ACh and histamine HA were followed by high-sensitivity and selectivity liquid chromatography coupled with mass spectrometry/mass spectrometry (LC-MS/MS) analytical method. […]

[4] = test system: extracellular acetylcholine (ACh) levels; assay: cerebral microdialysis, extracellular acetylcholine (ACh) levels in prefrontal cortex and hippocampus; assay type: in vivo, male Wistar rats; settings: rats
From the text: as §1, §2, §3

[5] = rat, in vivo
[6] = single treatment, 0.5 and 1 mg/kg into the stomach, MPFC and HC

Chain of rat histamine H3 receptors (Q9QYN8 whole entry): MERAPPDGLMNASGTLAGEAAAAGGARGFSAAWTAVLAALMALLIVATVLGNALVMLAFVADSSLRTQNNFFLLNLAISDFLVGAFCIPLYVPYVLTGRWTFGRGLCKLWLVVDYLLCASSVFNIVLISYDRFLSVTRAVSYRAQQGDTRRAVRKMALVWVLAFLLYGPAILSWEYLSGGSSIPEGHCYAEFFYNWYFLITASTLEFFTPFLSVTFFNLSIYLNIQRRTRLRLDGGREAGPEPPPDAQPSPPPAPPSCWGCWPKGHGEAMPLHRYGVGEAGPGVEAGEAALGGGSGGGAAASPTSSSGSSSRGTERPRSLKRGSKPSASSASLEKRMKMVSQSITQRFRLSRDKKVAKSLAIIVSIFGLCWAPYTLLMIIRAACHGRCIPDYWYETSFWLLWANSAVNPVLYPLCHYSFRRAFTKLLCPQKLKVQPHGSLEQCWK
Chain of hERG potassium channel (Q12809 whole entry): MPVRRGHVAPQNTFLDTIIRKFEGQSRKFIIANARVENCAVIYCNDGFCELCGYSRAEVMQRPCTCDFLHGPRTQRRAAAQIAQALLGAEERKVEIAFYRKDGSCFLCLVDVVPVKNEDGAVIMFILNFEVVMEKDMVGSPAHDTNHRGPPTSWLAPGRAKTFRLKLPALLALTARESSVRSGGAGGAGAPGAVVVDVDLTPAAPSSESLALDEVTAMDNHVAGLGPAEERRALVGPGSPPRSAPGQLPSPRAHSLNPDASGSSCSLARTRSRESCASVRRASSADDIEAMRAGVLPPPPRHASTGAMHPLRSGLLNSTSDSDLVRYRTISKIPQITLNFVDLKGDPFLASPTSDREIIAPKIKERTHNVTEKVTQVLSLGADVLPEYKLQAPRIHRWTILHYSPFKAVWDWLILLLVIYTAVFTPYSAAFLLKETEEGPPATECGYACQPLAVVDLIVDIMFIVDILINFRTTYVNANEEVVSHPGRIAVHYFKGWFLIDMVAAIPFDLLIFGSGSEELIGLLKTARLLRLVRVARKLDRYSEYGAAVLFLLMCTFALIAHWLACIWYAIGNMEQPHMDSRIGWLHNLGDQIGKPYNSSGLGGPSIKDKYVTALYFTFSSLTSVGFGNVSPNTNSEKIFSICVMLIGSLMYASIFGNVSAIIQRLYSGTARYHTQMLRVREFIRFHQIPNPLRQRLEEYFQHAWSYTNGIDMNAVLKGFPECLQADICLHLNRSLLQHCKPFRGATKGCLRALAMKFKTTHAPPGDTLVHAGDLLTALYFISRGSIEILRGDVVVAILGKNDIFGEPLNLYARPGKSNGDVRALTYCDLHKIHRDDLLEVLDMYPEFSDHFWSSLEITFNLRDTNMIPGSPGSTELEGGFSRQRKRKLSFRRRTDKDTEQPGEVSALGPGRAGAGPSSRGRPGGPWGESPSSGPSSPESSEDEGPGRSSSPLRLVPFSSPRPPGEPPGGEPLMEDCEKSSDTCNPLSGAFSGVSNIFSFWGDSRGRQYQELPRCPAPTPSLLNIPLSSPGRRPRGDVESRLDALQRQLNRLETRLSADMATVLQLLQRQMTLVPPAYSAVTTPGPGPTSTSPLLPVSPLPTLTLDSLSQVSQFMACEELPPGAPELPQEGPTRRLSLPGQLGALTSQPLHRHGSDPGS

Row | SMILES | Ki [2] [nM] | further results
1 | C[C@@H]1CCCN1CCc1cc2cc(-c3ccc(C#N)cc3)ccc2o1 [ABT-239] | – | cardiovascular side-effects, interaction with the hERG potassium channel (hERG potassium channel): interaction with the hERG potassium channel; plasma protein binding [1]: High
2 | CCN(C)C(=O)N1CCC(Oc2ccc(OCCCN3CCC[C@H]3C)cc2)CC1 [Example 16, N-ethyl-N-methyl-4-(4-{3-[(2R)-2-methyl-pyrrolidin-1-yl]-propoxy}-phenoxy)-piperidine-1-carboxamide hydrochloride salt] | < 10 | –
3 | CC(=O)N1CCC(Oc2ccc(OCCCN3CCC[C@H]3C)cc2)CC1 [Example 11, 1-[4-(4-{3-[(2R)-2-methyl-pyrrolidin-1-yl]-propoxy}-phenoxy)-piperidin-1-yl]-ethanone hydrochloride salt] | 10 to 50 | HA release evoked by Compound 11 ([3]; simultaneous administration with donepezil): not changed; extracellular HA level [3, 6]: rapid and expressed increase; extracellular ACh ([4]; simultaneous administration of 0.5 mg/kg donepezil and 0.5 or 1 mg/kg Compound 11, MPFC and HC): supra-additive increase; ACh levels [4, 6]: No significant changes; plasma and brain levels [5]: did not change
4 | CCOC(=O)N1CCC(Oc2ccc(OCCCN3CCC[C@H]3C)cc2)CC1 [Example 14, ethyl-4-(4-{3-[(2R)-2-methyl-pyrrolidin-1-yl]-propoxy}-phenoxy)-piperidine-1-carboxilate hydrochloride salt] | < 10 | –
5 | CC(=O)N1CCC(Oc2ccc(OCCCN3CCCCC3)cc2)CC1 [Example 3, 1-(4-{4-[3-(piperidin-1-yl)-propoxy]-phenoxy}-piperidin-1-yl)-ethanone hydrochloride salt] | < 10 | –
6 | CC1(C(=O)N2CCC(Oc3ccc(OCCCN4CCCCC4)cc3)CC2)CC1 [Example 5, (1-methyl-cyclopropyl)-(4-{4-[3-(piperidin-1-yl)-propoxy]-phenoxy}-piperidin-1-yl)-methanon hydrochloride salt] | < 10 | –
7 | CCNC(=O)N1CCC(Oc2ccc(OCCCN3CCC[C@H]3C)cc2)CC1 [Example 15, N-ethyl-4-(4-{3-[(2R)-2-methyl-pyrrolidin-1-yl]-propoxy}-phenoxy)-piperidine-1-carboxamide] | < 10 | –

More lines, main results first:

Row | Ki [2] [nM] | SMILES | further results
8 | 10 to 50 | CCNC(=O)N1CCC(Oc2ccc(OCCCN3CCCCC3)cc2)CC1 [Example 7, N-ethyl-4-{4-[3-(piperidin-1-yl)-propoxy]-phenoxy}-piperidine-1-carboxamide] | –
9 | < 10 | C[C@@H]1CCCN1CCCOc1ccc(OC2CCN(C(=O)C3(C)CC3)CC2)cc1 [Example 13, (1-methyl-cyclopropyl)-[4-(4-{3-[(2R)-2-methyl-pyrrolidin-1-yl]-propoxy}-phenoxy)-piperidin-1-yl]-methanone hydrochloride salt] | –
10 | 10 to 50 | O=C(C1CCC1)N1CCC(Oc2ccc(OCCCN3CCCCC3)cc2)CC1 [Example 4, Cyclobutyl-(4-{4-[3-(piperidin-1-yl)-propoxy]-phenoxy}-piperidin-1-yl)-methanone hydrochloride salt] | –
11 | < 10 | C[C@@H]1CCCN1CCCOc1ccc(OC2CCNCC2)cc1 [Example 10, 4-(4-{3-[(2R)-2-methyl-pyrrolidin-1-yl]-propoxy}-phenoxy)-piperidine dihydrochloride salt] | –
12 | 10 to 50 | C[C@@H]1CCCN1CCCOc1ccc(OC2CCN(C(=O)OC(C)(C)C)CC2)cc1 [Example 9, 4-(4-{3-[(2R)-2-methyl-pyrrolidin-1-yl]-propoxy}-phenoxy)-piperidine-1-carboxylic acid tert-butyl ester] | –
13 | 10 to 50 | CC(C)(C)OC(=O)N1CCC(Oc2ccc(OCCCN3CCCCC3)cc2)CC1 [Example 1, 4-{4-[3-(piperidin-1-yl)-propoxy]-phenoxy}-piperidine-1-carboxylic acid tert-butyl ester] | –
14 | 10 to 50 | CCN(C)C(=O)N1CCC(Oc2ccc(OCCCN3CCCCC3)cc2)CC1 [Example 8, N-ethyl-N-methyl-4-{4-[3-(piperidin-1-yl)-propoxy]-phenoxy}-piperidine-1-carboxamide hydrochloride salt] | –
15 | < 10 | C[C@@H]1CCCN1CCCOc1ccc(OC2CCN(C(=O)C3CCC3)CC2)cc1 [Example 12, cyclobutyl-[4-(4-{3-[(2R)-2-methylpyrrolidin-1-yl]-propoxy}-phenoxy)-piperidin-1-yl]-methanone hydrochloride salt] | –
16 | 10 to 50 | c1cc(OC2CCNCC2)ccc1OCCCN1CCCCC1 [Example 2, 1-{3-[4-(piperidin-4-yl-oxy)-phenoxy]-propyl}-piperidine dihydrochloride salt] | –
17 | 10 to 50 | CCOC(=O)N1CCC(Oc2ccc(OCCCN3CCCCC3)cc2)CC1 [Example 6, Ethyl-4-{4-[3-(piperidin-1-yl)-propoxy]-phenoxy}-piperidine-1-carboxylate hydrochloride salt] | –
